Measured values: the supplement of paper PMC10307832

Tests used:
Assay in all cases: relative viability (nuclei count vs DMSO), 5 days (fraction); higher = more cells survive
[1] = compound: OCc1c[nH]c2ccccc12 [Indole-3-carbinol] + CC(=O)c1c(C)c2cnc(Nc3ccc(N4CCNCC4)cn3)nc2n(C2CCCC2)c1=O [Palbociclib] (partner 0.5 µM)
Summary of the method: (§1)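 Relative viability equals treated-well nuclei counts divided by vehicle-well nuclei counts. Counts came from 4× images of lung cancer cell lines grown in 1536-well plates for 5 days after pin-tool dosing on the day after seeding. Dosing used one drug alone or a fixed anchor-drug dose plus five library-drug doses (not always all listed) in √10 steps, and values are medians of duplicate plates.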

[2] = compound: OCc1c[nH]c2ccccc12 [Indole-3-carbinol] + CCNC(=O)c1noc(-c2cc(C(C)C)c(O)cc2O)c1-c1ccc(CN2CCOCC2)cc1 [Luminespib] (partner 0.01 µM)
Summary of the method: as §1

[3] = compound: OCc1c[nH]c2ccccc12 [Indole-3-carbinol] + C[C@]1(O)C[C@@H](c2nc(-c3ccc4ccc(-c5ccccc5)nc4c3)c3c(N)nccn32)C1 [Linsitinib] (partner 1 µM)
Summary of the method: as §1

[4] = compound: OCc1c[nH]c2ccccc12 [Indole-3-carbinol] + NC(=O)Nc1cc(-c2cccc(F)c2)sc1C(=O)N[C@H]1CCCNC1 [AZD7762] (partner 0.2 µM)
Summary of the method: as §1

[5] = compound: OCc1c[nH]c2ccccc12 [Indole-3-carbinol] + O=C(c1cc(Cc2n[nH]c(=O)c3ccccc23)ccc1F)N1CCN(C(=O)C2CC2)CC1 [Olaparib] (partner 8 µM)
Summary of the method: as §1

| Cell Line | relative viability ([1]; first compound 0.253 µM) | relative viability ([1]; first compound 0.8 µM) | relative viability ([1]; first compound 2.53 µM) | relative viability ([1]; first compound 8 µM) | relative viability ([2]; first compound 0.253 µM) | relative viability ([2]; first compound 0.8 µM) | relative viability ([2]; first compound 2.53 µM) | relative viability ([2]; first compound 8 µM) | relative viability ([3]; first compound 0.253 µM) | relative viability ([3]; first compound 0.8 µM) | relative viability ([3]; first compound 2.53 µM) | relative viability ([3]; first compound 8 µM) | relative viability ([4]; first compound 0.253 µM) | relative viability ([4]; first compound 0.8 µM) | relative viability ([4]; first compound 2.53 µM) | relative viability ([4]; first compound 8 µM) | relative viability ([5]; first compound 0.253 µM) | relative viability ([5]; first compound 0.8 µM) | relative viability ([5]; first compound 2.53 µM) | relative viability ([5]; first compound 8 µM) |
| --- | --- | --- | --- | --- | --- | --- | --- | --- | --- | --- | --- | --- | --- | --- | --- | --- | --- | --- | --- | --- |
| 201T | 0.357 | 0.396 | 0.356 | 0.34 | 1.03 | 1.01 | 1.07 | 1 | 1.03 | 0.975 | 1.1 | 1.05 | 0.623 | 0.591 | 0.614 | 0.725 | 0.849 | 0.856 | 0.843 | 0.848 |
| A-427 | 0.52 | 0.568 | 0.547 | 0.491 | 0.932 | 0.96 | 0.908 | 0.895 | 1.1 | 1.06 | 1.09 | 1.08 | 0.72 | 0.763 | 0.908 | 0.778 | 0.661 | 0.714 | 0.788 | 0.728 |
| ABC-1 | 0.681 | 0.807 | 0.794 | 0.735 | – | 0.696 | 0.803 | 0.509 | 0.931 | 1.04 | 0.82 | 0.706 | 0.72 | 0.974 | 0.618 | 0.833 | 0.855 | 0.97 | 0.87 | 0.761 |
| BEN | 0.495 | 0.445 | 0.512 | 0.485 | 0.346 | 0.188 | 0.377 | 0.379 | 0.863 | 0.827 | 0.84 | 0.847 | 0.635 | 0.706 | 0.732 | 0.784 | 1.09 | 1.05 | 1.12 | 1.06 |
| CAL-12T | 0.443 | 0.517 | 0.573 | 0.398 | 0.393 | 0.533 | 0.592 | 0.767 | 0.835 | 0.846 | 0.832 | 0.71 | 0.608 | 0.631 | 0.733 | 0.536 | 0.672 | 0.834 | 0.717 | 0.66 |
| COR-L23 | 0.323 | 0.245 | 0.308 | 0.237 | 0.74 | 0.754 | 0.712 | 0.512 | 0.962 | 0.862 | 0.993 | 0.786 | – | – | – | – | 0.37 | 0.411 | 0.372 | 0.31 |
| COR-L 105 | 0.439 | 0.408 | 0.41 | 0.397 | 0.758 | 0.723 | 0.651 | 0.656 | 0.693 | 0.767 | 0.99 | 0.65 | – | – | – | – | 0.642 | 0.655 | 0.713 | 0.685 |
| ChaGo-K-1 | 0.942 | 0.939 | 0.994 | 0.968 | 0.649 | 0.658 | 0.576 | 0.557 | – | – | – | – | 1 | 0.853 | 0.932 | 0.869 | 0.427 | 0.45 | 0.415 | 0.387 |
| EKVX | 0.384 | 0.36 | 0.386 | 0.452 | 0.972 | 0.884 | 0.908 | 0.848 | 1.03 | 1.03 | 0.973 | 0.976 | 0.759 | 0.752 | 0.744 | 0.633 | 0.797 | 0.938 | 0.851 | 0.85 |
